Reference: ChEMBL document CHEMBL5465560, “Selectivity Literature for EUbOPEN Chemogenomic Library” (2024)

What was measured:
[1] = system: Epidermal growth factor receptor (Homo sapiens), P00533 [T790M]; details: at 10 µM
[2] = biological target: Phosphatidylinositol 4-kinase alpha (Homo sapiens, UniProt P42356); assay: Selectivity interaction (Kinase panel (Invitrogen)) EUB0000639a PI4KA; details: at 200 nM
[3] = biological target: Phosphatidylinositol 4-kinase type 2-beta (Homo sapiens) (UniProt Q8TCG2); assay: Selectivity interaction (ActivX KiNativ screen (kinase selectivity in THP-1 cell lysates)) EUB0000639a PI4K2B; format: subcellular; details: lysate
[4] = biological target: Histone-lysine N-methyltransferase SETDB1 (Homo sapiens) (UniProt Q15047); details: at 10 µM
[5] = biological target: T1, Tyrosine-protein kinase Tec (Homo sapiens) (UniProt P42680); assay: Selectivity interaction (KinomeScan (DiscoverX)) EUB0000695a TEC; details: at 100 nM
T1 sequence (whole entry): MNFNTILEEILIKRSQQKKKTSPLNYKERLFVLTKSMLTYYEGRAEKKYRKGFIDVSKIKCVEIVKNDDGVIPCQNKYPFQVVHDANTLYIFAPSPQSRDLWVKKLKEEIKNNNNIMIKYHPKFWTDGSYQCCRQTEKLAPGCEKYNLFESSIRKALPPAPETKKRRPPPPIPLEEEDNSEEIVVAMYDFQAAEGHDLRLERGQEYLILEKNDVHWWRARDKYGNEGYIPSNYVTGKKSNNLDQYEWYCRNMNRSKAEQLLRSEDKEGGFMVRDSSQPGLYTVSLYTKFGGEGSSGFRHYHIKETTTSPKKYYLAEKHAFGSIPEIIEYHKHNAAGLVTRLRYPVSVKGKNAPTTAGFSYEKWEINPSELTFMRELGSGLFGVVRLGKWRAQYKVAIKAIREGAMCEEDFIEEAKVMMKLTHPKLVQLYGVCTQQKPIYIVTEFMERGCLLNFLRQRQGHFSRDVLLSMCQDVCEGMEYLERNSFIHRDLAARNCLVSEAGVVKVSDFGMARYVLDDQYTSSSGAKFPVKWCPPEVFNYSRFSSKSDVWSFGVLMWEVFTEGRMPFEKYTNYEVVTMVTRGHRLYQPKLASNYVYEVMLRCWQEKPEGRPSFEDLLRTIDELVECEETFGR

[6] = biological target: Ephrin type-A receptor 5 (Homo sapiens) (UniProt P54756); details: at 10 µM
[7] = biological target: T2, Myotonin-protein kinase (Homo sapiens) (UniProt Q09013); details: at 10 µM
T2 sequence (whole entry): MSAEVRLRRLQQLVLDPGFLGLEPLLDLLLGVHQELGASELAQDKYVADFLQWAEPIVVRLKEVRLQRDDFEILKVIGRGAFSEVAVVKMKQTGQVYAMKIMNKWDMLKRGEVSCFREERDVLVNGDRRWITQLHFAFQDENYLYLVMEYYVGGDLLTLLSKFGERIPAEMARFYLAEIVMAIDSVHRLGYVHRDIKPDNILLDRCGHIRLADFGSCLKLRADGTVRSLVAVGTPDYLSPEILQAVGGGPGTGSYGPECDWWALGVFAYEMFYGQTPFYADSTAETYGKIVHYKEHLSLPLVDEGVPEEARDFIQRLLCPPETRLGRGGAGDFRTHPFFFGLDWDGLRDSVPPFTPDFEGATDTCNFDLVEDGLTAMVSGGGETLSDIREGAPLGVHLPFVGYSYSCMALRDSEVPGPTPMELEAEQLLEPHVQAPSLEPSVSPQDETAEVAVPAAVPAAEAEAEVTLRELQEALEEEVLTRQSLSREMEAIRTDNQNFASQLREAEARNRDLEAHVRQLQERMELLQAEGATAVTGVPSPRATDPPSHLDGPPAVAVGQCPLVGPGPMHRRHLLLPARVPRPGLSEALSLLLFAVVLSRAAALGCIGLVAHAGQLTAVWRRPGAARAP

[8] = biological target: T3, Myosin light chain kinase family member 4 (Homo sapiens) (UniProt Q86YV6); assay: Selectivity interaction (KinomeScan (DiscoverX)) EUB0001079a MYLK4; details: at 1 µM
T3 sequence (whole entry): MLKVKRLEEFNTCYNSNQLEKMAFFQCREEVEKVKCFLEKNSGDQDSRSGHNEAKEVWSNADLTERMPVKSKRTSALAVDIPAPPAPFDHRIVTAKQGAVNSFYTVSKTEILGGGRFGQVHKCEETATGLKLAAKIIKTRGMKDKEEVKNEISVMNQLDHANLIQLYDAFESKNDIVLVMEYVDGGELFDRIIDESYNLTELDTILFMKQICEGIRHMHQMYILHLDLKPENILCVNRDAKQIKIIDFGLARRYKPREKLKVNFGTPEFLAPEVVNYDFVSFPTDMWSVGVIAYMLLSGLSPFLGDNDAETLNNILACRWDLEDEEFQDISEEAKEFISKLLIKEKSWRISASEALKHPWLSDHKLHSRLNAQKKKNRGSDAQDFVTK

[9] = biological target: Tyrosine-protein kinase receptor UFO (Homo sapiens) (UniProt P30530); assay: Selectivity interaction (KinomeScan (DiscoverX)) EUB0000092b AXL; details: at 10 µM
[10] = biological target: Serine/threonine-protein kinase 24 (Homo sapiens) (UniProt Q9Y6E0); assay: Selectivity interaction (KinomeScan (DiscoverX)) EUB0001619a STK24; details: at 1 µM
[11] = biological target: Mitogen-activated protein kinase 8 (Homo sapiens, UniProt P45983); assay: Selectivity interaction (KinomeScan (DiscoverX)) EUB0001619a MAPK8; details: at 1 µM
[12] = biological target: T4, Serine/threonine-protein kinase Sgk3 (Homo sapiens) (UniProt Q96BR1); assay: Selectivity interaction (KinomeScan (DiscoverX)) EUB0000607a SGK3; details: at 10 µM
T4 sequence (whole entry): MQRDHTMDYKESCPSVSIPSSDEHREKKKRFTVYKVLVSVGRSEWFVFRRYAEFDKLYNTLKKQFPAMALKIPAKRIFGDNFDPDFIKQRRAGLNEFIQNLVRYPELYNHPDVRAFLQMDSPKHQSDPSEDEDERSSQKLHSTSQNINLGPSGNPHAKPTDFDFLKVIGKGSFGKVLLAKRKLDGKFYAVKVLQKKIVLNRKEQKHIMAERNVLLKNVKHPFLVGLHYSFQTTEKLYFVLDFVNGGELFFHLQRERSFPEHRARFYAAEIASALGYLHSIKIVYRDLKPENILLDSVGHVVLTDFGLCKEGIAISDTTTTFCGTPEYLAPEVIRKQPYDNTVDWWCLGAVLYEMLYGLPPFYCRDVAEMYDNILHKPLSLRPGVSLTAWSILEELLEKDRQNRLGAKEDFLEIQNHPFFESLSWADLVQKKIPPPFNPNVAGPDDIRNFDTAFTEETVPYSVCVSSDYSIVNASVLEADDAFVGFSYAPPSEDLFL

Chain of Phosphatidylinositol 4-kinase type 2-beta (Homo sapiens) (Q8TCG2 whole entry): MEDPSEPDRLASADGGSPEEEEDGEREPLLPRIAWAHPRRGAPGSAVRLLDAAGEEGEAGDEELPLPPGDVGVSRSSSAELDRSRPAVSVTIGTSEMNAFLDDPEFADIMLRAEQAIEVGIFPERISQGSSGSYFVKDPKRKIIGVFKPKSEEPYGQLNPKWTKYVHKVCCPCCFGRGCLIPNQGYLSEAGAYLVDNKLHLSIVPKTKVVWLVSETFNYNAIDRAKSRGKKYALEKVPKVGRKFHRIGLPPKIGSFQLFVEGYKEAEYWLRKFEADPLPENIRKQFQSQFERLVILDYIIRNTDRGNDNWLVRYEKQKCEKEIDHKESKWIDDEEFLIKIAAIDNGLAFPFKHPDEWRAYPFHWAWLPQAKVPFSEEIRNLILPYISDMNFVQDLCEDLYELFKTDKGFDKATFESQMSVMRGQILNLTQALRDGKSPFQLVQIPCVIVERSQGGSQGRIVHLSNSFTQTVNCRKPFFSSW
Chain of Phosphatidylinositol 4-kinase alpha (P42356 whole entry, looked up): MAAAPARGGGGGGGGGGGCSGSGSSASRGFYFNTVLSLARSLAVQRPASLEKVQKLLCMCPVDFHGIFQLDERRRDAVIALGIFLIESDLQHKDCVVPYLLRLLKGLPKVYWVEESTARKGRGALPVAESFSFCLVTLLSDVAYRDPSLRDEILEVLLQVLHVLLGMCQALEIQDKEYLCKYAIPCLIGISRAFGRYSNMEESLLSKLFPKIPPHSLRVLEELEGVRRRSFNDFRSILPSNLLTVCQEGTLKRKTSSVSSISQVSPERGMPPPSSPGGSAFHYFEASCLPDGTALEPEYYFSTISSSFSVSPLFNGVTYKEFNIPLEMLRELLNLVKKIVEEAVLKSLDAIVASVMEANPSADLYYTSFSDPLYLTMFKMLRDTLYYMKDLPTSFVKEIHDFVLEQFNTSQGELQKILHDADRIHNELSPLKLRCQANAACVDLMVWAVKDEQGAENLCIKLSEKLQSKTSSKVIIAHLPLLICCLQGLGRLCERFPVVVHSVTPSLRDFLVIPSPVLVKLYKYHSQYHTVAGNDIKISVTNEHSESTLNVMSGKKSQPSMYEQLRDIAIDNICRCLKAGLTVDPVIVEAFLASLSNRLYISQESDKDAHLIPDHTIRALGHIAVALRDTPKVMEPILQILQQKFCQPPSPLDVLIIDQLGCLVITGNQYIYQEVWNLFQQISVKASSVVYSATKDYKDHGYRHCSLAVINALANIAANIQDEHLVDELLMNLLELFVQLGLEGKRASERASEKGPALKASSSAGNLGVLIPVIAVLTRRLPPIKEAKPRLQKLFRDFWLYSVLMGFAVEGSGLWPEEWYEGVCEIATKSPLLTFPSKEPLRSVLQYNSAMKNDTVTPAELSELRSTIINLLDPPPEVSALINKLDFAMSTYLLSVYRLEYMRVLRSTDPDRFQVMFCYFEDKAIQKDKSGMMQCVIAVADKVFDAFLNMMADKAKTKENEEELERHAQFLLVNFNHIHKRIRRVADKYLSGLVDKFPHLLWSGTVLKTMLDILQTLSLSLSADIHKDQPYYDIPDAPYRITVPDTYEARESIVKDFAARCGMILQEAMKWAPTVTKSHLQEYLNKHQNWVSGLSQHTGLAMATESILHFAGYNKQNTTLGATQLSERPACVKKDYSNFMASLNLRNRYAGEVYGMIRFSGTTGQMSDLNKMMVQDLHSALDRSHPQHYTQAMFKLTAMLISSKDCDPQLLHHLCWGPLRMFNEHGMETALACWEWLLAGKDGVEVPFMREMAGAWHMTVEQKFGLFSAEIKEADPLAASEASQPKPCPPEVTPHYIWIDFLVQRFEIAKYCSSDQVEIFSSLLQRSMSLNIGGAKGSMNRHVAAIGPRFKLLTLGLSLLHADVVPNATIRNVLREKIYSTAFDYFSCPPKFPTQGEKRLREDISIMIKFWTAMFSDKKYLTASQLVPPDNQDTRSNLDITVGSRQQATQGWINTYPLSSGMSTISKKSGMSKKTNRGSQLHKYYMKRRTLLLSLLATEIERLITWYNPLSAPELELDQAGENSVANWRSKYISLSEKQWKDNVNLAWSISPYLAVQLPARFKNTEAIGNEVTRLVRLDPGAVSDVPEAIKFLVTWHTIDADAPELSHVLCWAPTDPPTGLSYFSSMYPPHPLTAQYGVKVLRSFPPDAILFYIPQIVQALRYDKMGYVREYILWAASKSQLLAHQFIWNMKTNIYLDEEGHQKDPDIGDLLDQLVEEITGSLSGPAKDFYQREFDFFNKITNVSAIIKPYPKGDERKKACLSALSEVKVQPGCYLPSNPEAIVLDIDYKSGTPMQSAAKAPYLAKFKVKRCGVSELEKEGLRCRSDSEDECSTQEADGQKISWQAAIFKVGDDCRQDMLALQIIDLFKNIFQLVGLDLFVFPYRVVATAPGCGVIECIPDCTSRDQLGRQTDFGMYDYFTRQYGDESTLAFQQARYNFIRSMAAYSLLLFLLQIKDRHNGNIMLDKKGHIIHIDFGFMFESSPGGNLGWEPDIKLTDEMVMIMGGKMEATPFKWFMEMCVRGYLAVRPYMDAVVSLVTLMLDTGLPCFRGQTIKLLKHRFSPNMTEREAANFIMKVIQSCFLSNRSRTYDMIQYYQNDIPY
Chain of Mitogen-activated protein kinase 8 (P45983 whole entry): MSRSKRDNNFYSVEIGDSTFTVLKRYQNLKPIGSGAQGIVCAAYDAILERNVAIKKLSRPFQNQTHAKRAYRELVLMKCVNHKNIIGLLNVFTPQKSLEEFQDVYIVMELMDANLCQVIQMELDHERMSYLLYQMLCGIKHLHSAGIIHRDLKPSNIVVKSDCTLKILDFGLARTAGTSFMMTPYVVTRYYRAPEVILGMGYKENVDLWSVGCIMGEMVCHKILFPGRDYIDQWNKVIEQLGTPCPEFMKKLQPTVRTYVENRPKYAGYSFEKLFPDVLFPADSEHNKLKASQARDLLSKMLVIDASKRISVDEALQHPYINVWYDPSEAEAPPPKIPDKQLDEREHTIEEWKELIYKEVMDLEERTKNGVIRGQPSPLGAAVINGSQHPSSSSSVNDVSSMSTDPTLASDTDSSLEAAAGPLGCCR
Chain of Ephrin type-A receptor 5 (Homo sapiens) (P54756 whole entry): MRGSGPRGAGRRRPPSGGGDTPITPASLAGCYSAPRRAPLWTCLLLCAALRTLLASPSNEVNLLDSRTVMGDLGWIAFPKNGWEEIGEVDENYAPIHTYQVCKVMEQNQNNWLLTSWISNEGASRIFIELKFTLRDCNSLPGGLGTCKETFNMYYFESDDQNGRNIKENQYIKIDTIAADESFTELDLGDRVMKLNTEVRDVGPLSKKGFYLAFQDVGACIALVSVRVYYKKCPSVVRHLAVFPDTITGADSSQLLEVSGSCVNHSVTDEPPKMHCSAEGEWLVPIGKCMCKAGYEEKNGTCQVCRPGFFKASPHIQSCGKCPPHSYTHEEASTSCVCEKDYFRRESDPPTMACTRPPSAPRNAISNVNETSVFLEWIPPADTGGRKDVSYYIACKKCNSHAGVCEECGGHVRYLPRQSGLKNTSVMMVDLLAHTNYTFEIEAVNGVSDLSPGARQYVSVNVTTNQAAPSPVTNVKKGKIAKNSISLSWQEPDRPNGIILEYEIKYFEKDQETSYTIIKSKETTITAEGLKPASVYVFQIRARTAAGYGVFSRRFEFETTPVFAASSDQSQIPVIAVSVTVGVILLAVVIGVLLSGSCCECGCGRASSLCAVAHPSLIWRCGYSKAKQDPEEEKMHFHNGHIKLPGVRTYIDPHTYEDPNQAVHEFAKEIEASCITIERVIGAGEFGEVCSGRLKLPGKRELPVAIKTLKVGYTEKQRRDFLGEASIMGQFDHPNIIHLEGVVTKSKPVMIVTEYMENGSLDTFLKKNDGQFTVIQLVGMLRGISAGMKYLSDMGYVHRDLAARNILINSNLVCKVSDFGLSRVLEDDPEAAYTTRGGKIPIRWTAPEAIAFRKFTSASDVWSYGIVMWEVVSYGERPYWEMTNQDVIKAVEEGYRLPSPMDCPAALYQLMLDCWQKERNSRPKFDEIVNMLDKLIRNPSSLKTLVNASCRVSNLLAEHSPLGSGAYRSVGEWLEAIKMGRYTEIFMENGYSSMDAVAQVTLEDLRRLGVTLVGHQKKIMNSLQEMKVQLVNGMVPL
Chain of Tyrosine-protein kinase receptor UFO (Homo sapiens) (P30530 whole entry): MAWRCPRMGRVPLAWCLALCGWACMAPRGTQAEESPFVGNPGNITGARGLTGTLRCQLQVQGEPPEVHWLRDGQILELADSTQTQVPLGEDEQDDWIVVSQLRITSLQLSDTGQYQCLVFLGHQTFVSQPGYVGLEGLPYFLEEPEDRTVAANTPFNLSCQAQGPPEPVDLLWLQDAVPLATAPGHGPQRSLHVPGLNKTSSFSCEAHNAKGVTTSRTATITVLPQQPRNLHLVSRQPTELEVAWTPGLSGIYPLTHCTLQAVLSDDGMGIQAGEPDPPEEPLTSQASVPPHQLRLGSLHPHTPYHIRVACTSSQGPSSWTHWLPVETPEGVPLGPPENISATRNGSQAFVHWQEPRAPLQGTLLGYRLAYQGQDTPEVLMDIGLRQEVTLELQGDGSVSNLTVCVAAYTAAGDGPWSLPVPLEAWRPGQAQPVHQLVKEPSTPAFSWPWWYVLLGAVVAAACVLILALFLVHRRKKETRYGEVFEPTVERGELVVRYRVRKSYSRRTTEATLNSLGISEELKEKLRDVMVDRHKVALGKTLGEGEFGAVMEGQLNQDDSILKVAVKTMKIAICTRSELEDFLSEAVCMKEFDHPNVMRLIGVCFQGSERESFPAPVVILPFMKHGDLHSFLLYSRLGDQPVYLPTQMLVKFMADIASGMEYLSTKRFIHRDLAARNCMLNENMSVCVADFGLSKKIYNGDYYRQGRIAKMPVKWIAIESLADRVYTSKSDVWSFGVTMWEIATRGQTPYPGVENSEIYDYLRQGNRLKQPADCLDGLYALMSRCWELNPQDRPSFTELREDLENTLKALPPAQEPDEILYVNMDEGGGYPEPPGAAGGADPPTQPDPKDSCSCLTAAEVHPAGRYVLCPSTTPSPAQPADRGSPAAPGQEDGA

`Cc1cc([C@@H](C)Nc2ccccc2C(=O)O)c2nc(N3CCOCC3)cc(=O)n2c1` [AZD-6482] gave a % of control [1] of 100%.
Compound `CC[C@@H]1[C@H](F)C(=O)N[C@@H]1COc1nccc2cc(C(N)=O)c(OC)cc12` [ZIMLOVISERTIB] has a % of inhibition [2] of -0.209%, a % of inhibition ([3]; at 0.01 µM) of 13.9% and a % of inhibition ([3]; at 0.04 µM) of -2.8%. It also gave a % of inhibition ([3]; at 0.2 µM) of -47.4%, a % of inhibition ([3]; at 1 µM) of -23.2% and a % of inhibition ([3]; at 5 µM) of -24%.
`CNCCN1CCC(c2cc(CN(C)C(=O)c3cccc(Oc4ccccc4)c3)ccn2)CC1` was tested, and the % activity [4] was greater than 90%.
`Cc1cc(F)c(C(=O)Nc2cccc(-c3nncn3C(C)C)n2)cc1-n1cnc(C2CC2)c1` showed a % of control [5] of 100%.
In the case of `CCN(CC)CCCCNc1ncc2cc(-c3cc(OC)cc(OC)c3)c(NC(=O)NC(C)(C)C)nc2n1`, the % of control [6] is reported as 100% and the % of control [7] is reported as 100%.
Compound `Nc1cnc(N2CCc3cc(S(=O)(=O)Nc4c(F)cc(Cl)cc4F)cc(N4CCCC4=O)c32)nc1` [TP-020n] has a % of control [8] of 100%.
For `CCC(=O)N1CCN(c2ccc(-n3c(=O)ccc4cnc5ccc(-c6cnc7ccccc7c6)cc5c43)cc2C(F)(F)F)CC1`, the % of control [9] was 46%.
`N#Cc1cccc(-c2c[nH]c3ncnc(N4CCOCC4)c23)c1` gave a % of control [10] of 60% and a % of control [11] of 62%.
`CNC(=O)Nc1ccc(-c2nc(N3CC4CCC(C3)O4)c3cnn(C4CCC5(CC4)OCCO5)c3n2)cc1` gave a % of control [12] of 100%.
